Data taken from patent US20250268889A1, “COMPOUNDS AND COMBINATIONS THEREOF FOR TREATING NEUROLOGICAL AND PSYCHIATRIC CONDITIONS” (priority 2022, published 2025).
Read-outs that look alike come from different tables or passages of the source.

Assays:
[1] = human, in vivo
[2] = Pharmacokinetics of the subject combination (steady state); conditions: for AUC0-12 relative to that of bupropion / Cmax relative to peak level of bupropion: metabolite; for apparent elimination half-life: metabolites of bupropion; for changes in AUC and Cmax with dose (dose proportionality): steady state, co-administered with bupropion
[3] = Pharmacokinetics in moderate renal impairment vs matched controls
From the text: (§1) Data are GMRs and 90% CIs. References used are the matched healthy subjects for renal and hepatic impairment studies, and extensive or ultra-extensive CYP2D6 metabolizers respectively.

[4] = Pharmacokinetics in CYP2D6 poor metabolizers vs extensive metabolizers
From the text: Approximately 7% to 10% of Caucasians and 3% to 8% of African Americans lack the capacity to metabolize CYP2D6 substrates and are classified as poor metabolizers.
as §1

[5] = Effect of concomitant 20 mg paroxetine on dextromethorphan exposure (Example 6); conditions: tablet of Example 4 twice daily, vs without paroxetine
[6] = Effect of food on pharmacokinetics of the subject combination; conditions: subject combination administered with food
[7] = Solubility of the powder in water
[8] = Co-administration of paroxetine and the subject combination in healthy volunteers (Example 3); conditions: 29 healthy volunteers; paroxetine co-administered with the subject combination
[9] = Pharmacokinetics in moderate hepatic impairment vs matched healthy subjects; conditions: patients having moderate hepatic impairment (Group 2)
From the text: as §1

plasma protein = assay: Plasma protein binding; conditions: metabolite
[10] = test system: patients with treatment-resistant depression or MDD; conditions: cited from earlier work
[11] = after administration of the subject combination
[12] = 7 subjects with moderate (GFR 30-60 mL/min) renal impairment vs 6 matched controls
[13] = patients having moderate renal impairment

For `Fc1ccc([C@@H]2CCNC[C@H]2COc2ccc3c(c2)OCO3)cc1` [paroxetine], the “increase of overall exposure when co-administered with the subject combination” value [1] was 1.2 fold.

In the case of `C[C@H]1NC(C)(C)CO[C@]1(O)c1cccc(Cl)c1` [hydroxybupropion], the “AUC0-12 relative to that of bupropion” value [2, 11] is reported as “about 19 times”, the “Cmax relative to peak level of bupropion” value [2, 11] is reported as “approximately 14 times” and the apparent elimination half-life [2] is reported as “approximately 35 hours”.

In the case of `Br.COc1ccc2c(c1)[C@]13CCCC[C@@H]1[C@H](C2)N(C)CC3` [dextromethorphan, morphinan, 3-methoxy-17-methyl-, (9α, 13α, 14α), hydrobromide monohydrate], the increase of exposure [3, 12] is reported as “approximately 2 fold”, the reduction of clearance [3, 12] is reported as 50% and the “increase in AUC0-12” value [3, 13] is reported as 2.21 fold. For the same molecule, the “increase in Cmax” value [3, 13] was 2.10 fold, the “increase in AUC0-12 compared to extensive metabolizers” value ([4]; 3 poor metabolizers) was ~3.4 fold and the “increase in Cmax compared to extensive metabolizers” value ([4]; 3 poor metabolizers) was ~3 fold. The “steady state plasma concentrations compared to non-poor metabolizers” value ([4]; 12 poor metabolizers treated in efficacy trials) was “generally higher”, the “increase of AUC0-12 with concomitant paroxetine” value [5] was 2.69 fold and the “increase of Cmax with concomitant paroxetine” value [5] was 2.38 fold. For the same molecule, the “change of Cmax with food” value [6] was “unchanged”, the “decrease of AUC0-12 with food” value [6] was 14% and the “increase of mean elimination half-life compared to dextromethorphan given without bupropion” value ([2]; following 8 days of administration of the subject combination in extensive metabolizers) was “approximately 3 fold”. For the same molecule, the “changes in AUC and Cmax with dose (dose proportionality)” value ([2]; varying doses of bupropion (75 to 150 mg)) was “less than dose-proportional”, the “changes in AUC and Cmax with dose (dose proportionality)” value ([2]; varying doses of dextromethorphan (30 to 60 mg)) was “greater than dose-proportional” and the “accumulation ratio at steady state based on AUC0-12” value ([2]; subject combination) was “about 32”. For the same molecule, the “accumulation ratio at steady state based on Cmax” value ([2]; subject combination) was “about 20”, the solubility in water [7] was “sparingly soluble” and the “increase of overall exposure by paroxetine” value [8] was 2.5 fold. For the same molecule, the “AUC0-12 and Cmax compared with healthy patients” value [9] was “not significantly different”.

For `CC(NC(C)(C)C)C(=O)c1cccc(Cl)c1.Cl` (racemic) [bupropion, (±)-1-(3-chlorophenyl)-2-[(1,1-dimethylethyl)amino]-1-propanone hydrochloride], the “increase in AUC0-12” value ([3]; human, in vivo) was 1.80 fold, the “increase in Cmax” value ([3]; human, in vivo) was 1.87 fold and the increase of exposure ([3]; human, in vivo) was “approximately 2 fold”. For the same molecule, the reduction of clearance ([3]; human, in vivo) was 50%, the “median Tmax” value [2, 11] was “about 2 hours” and the solubility in water [7] was “highly soluble”. For the same molecule, the “AUC0-12 and Cmax compared with healthy patients” value [9] was “not significantly different”.

In the case of `CC(NC(C)(C)C)C(O)c1cccc(Cl)c1` (centres unmarked) [erythrohydroxybupropion], the “AUC0-12 relative to that of bupropion” value [2, 11] is reported as “about 1.2 times”, the “Cmax relative to peak level of bupropion” value [2, 11] is reported as “approximately equal to” and the apparent elimination half-life [2] is reported as ~44 h.

In the case of `C[C@H](NC(C)(C)C)[C@@H](O)c1cccc(Cl)c1` [threohydroxybupropion], the “AUC0-12 relative to that of bupropion” value [2, 11] is reported as “about 7 times”, the “Cmax relative to peak level of bupropion” value [2, 11] is reported as “about 5 times” and the apparent elimination half-life [2] is reported as ~33 h. The “extent of protein binding compared with bupropion” value (plasma protein) was “about half that seen with bupropion”.

In the case of `CN[C@]1(c2ccccc2Cl)CCCCC1=O` [esketamine, Esketamine], the “Incidence of Sedation (MOAA/S score <5)” value ([10]; 56 mg + oral AD, patients <65 years with TRD, fixed-dose study) is listed as 50%, the “Incidence of Sedation (MOAA/S score <5)” value ([10]; 84 mg + oral AD, patients <65 years with TRD, fixed-dose study) is listed as 61% and the “Incidence of Sedation (MOAA/S score <5)” value ([10]; 28 to 84 mg + oral AD, patients ≥65 years with TRD, flexible-dose study) is listed as 49%. The “incidence of sedation (MOAA/S score <5) compared to placebo plus oral antidepressant” value ([10]; adults with MDD with acute suicidal ideation or behavior) was “higher incidence of sedation”.
